The target in assay [1] is Somatostatin receptor type 3 (Homo sapiens, UniProt P32745).
Assay [2] deals with Somatostatin receptor type 1 (Homo sapiens, UniProt P30872).
Assay [3] deals with Somatostatin receptor type 2 (Homo sapiens, UniProt P30874).
The target of assay [4] is Somatostatin receptor type 4 (Homo sapiens, UniProt P31391).
For assay [5], the target named is Somatostatin receptor type 5 (Homo sapiens, UniProt P35346).

SMILES strings stand for the structures. “And” between values parts separate entries of the source, which are not always exact repeats. Identical values can stand only once. *1 amine or outer side, *2 acyl side, *3 side chain or, on linkers, in order; H or OH if unused. Where a SMILES comes first, the peptide text is derived from it. Bridges are numbered along the chain shown (N, C = ends). [ ]: non-standard residue; d: D form. The star is where a group is joined. d1Nal = N[C@H](Cc1cccc2ccccc12)C(=O)O; Asu = N[C@@H](CCCCCC(=O)O)C(=O)O; X1 = O=C(C(N[*:1])S[*:3])[*:2]; Ahp = NCCCCCCC(=O)O; Bn = c1ccc(C*)cc1; Mpa = O=C(O)CCS

Sequence of Somatostatin receptor type 2 (P30874 whole entry): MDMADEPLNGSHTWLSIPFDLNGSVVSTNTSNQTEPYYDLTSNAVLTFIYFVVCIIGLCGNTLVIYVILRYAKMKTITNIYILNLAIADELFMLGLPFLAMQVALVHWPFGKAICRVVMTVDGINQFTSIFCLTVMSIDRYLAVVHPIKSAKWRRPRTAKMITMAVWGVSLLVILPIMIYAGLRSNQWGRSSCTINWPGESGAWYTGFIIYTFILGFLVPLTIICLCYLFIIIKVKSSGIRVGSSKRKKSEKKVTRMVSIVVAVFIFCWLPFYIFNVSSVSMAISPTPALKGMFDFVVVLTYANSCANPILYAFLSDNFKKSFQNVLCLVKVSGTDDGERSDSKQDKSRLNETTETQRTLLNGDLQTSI
Sequence of Somatostatin receptor type 5 (P35346 whole entry): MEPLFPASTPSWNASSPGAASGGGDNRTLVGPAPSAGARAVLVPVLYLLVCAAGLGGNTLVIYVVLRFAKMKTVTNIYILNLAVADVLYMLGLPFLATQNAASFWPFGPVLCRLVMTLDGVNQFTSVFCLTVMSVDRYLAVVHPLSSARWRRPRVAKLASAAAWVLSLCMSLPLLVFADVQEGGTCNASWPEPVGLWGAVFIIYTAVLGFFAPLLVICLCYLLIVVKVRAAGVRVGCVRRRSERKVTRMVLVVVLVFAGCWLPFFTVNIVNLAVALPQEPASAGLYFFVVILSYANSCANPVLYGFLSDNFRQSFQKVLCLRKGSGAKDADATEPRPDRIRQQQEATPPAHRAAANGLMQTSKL
Sequence of Somatostatin receptor type 3 (P32745 whole entry): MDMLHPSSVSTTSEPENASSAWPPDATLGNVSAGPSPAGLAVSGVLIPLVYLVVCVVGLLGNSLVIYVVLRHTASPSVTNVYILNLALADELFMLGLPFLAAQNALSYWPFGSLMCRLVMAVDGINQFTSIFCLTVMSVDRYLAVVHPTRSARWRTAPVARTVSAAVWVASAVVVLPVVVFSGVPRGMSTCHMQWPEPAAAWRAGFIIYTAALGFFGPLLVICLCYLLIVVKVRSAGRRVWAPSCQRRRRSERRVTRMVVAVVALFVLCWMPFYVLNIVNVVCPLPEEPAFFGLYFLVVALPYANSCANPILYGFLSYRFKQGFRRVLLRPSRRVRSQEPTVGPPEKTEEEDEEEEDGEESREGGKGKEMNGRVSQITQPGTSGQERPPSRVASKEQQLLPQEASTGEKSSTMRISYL
Sequence of Somatostatin receptor type 1 (P30872 whole entry): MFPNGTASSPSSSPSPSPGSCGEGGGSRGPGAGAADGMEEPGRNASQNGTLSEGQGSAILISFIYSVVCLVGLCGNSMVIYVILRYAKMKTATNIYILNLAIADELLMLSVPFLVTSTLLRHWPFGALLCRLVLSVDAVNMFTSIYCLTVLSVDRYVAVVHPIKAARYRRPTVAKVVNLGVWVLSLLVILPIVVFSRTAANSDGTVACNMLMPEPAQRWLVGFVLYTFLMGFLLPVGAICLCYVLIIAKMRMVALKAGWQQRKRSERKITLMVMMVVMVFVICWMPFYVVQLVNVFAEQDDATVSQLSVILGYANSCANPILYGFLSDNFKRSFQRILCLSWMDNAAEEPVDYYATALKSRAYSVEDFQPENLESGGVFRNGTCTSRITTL
Sequence of Somatostatin receptor type 4 (P31391 whole entry): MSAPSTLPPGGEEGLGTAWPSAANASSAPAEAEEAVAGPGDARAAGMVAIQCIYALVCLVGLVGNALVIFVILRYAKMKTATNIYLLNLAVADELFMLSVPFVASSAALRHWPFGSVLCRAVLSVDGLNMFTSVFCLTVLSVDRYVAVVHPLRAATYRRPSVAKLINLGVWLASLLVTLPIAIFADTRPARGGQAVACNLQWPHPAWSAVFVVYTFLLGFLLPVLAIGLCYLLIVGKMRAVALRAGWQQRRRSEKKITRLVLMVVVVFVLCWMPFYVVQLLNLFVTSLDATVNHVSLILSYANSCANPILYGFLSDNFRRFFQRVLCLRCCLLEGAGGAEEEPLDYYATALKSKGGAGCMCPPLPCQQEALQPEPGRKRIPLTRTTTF

As to `C[C@@H](O)[C@@H]1NC(=O)[C@H](CCCCN)NC(=O)[C@H](Cc2c[nH]c3ccccc23)NC(=O)[C@H](Cc2ccccc2)NC(=O)[C@H](Cc2ccccc2)NC(=O)[C@H](CC(N)=O)NC(=O)[C@H](CCCCN)NC(=O)[C@@H](NC(=O)[C@@H]2CCCN2)CSSC[C@@H](C(=O)N[C@@H](CCCCN)C(=O)O)NC(=O)[C@H](CO)NC(=O)[C@H](CO)NC(=O)[C@H](Cc2ccc(O)cc2)NC1=O` [CST14-Tyr10] (H-PCKNFFWKTYSSCK-OH; disulfide 2-13), the inhibitory constant (Ki) – broadly, a measure of affinity in units of concentration, obtained from inhibition or displacement – in assay [1] is 0.95 nM and 1.99 nM and 1.25 nM; in assay [2], 4.78 nM and 2.75 nM and 0.91 nM; in assay [3], 1.17 nM and 1.69 nM and 1.23 nM and 1 nM; in assay [4] it was 5.01 nM and 3.63 nM and 6.76 nM.

Regarding `CSCC[C@H](NC(=O)[C@H](CCCN=C(N)N)NC(=O)[C@@H](N)CC(=O)O)C(=O)N1CCC[C@H]1C(=O)N[C@H]1CSSC[C@@H](C(=O)N[C@@H](CCCCN)C(=O)O)NC(=O)[C@H](CO)NC(=O)[C@H](CO)NC(=O)[C@H](Cc2ccccc2)NC(=O)[C@H]([C@@H](C)O)NC(=O)[C@H](CCCCN)NC(=O)[C@H](Cc2c[nH]c3ccccc23)NC(=O)[C@H](Cc2ccccc2)NC(=O)[C@H](Cc2ccccc2)NC(=O)[C@H](CC(N)=O)NC(=O)[C@H](CCCN=C(N)N)NC1=O` [Cortistatin], the Ki is 0.06 nM and 0.28 nM and 0.42 nM and 0.14 nM in assay [5]; 0.13 nM in assay [1]; 0.33 nM and 0.24 nM in assay [2]; 0.46 nM and 1.41 nM in assay [3]; 0.54 nM and 0.57 nM in assay [4].

As to `CC(C)[C@@H]1NC(=O)[C@H](CCCCN)NC(=O)[C@@H](Cc2c[nH]c3ccccc23)NC(=O)[C@H](Cc2ccc(O)cc2)NC(=O)[C@@H](NC(=O)[C@H](N)Cc2ccc3ccccc3c2)CSSC[C@@H](C(=O)N[C@H](C(N)=O)[C@@H](C)O)NC1=O` [3-(2-Naphtyl)-D-Ala-L-Cys(1)-L-Tyr-D-Trp-L-Lys-L-Val-L-Cys(1)-L-Thr-NH2], the Ki is 11.7 nM in assay [1], 178 nM in assay [2] and 0.37 nM in assay [3].

For the compound `C[C@@H](O)[C@@H]1NC(=O)[C@H](CCCCN)NC(=O)[C@@H](Cc2c[nH]c3ccccc23)NC(=O)[C@H](Cc2ccc(O)cc2)NC(=O)[C@@H](NC(=O)[C@H](N)Cc2ccccc2)CSSC[C@@H](C(=O)N[C@H](CO)[C@@H](C)O)NC1=O` [10-(4-Amino-butyl)-19-(2-amino-3-phenyl-propionylamino)-16-(4-hydroxy-benzyl)-7-(1-hydroxy-ethyl)-13-(1H-indol-3-ylmethyl)-6,9,12,15,18-pentaoxo-1,2-dithia-5,8,11,14,17-pentaaza-cycloicosane-4-carboxylic acid (2-hydroxy-1-hydroxymethyl-propyl)-amide], the Ki in assay [2] was 2040 nM and 2690 nM and 1510 nM; in assay [4], 1290 nM and 513 nM and 676 nM.

For `C[C@@H](O)[C@@H]1NC(=O)[C@H](CCCCN)NC(=O)[C@@H](Cc2c[nH]c3ccccc23)NC(=O)[C@H](Cc2c[nH]c3ccccc23)NC(=O)[C@H](Cc2ccccc2)NC(=O)CCCCCCNC(=O)[C@H](Cc2ccccc2)NC1=O` [L-362855] (cyclo([Ahp]FW[dW]KTF)), the Ki was found to be 5.12 nM in assay [1], 832 nM in assay [2] and 83.2 nM in assay [4].

As to `CC(C)[C@@H]1NC(=O)[C@H](CCCCN)NC(=O)[C@@H](Cc2c[nH]c3ccccc23)NC(=O)[C@H](Cc2ccc(O)cc2)NC(=O)CCSSC(C(=O)N[C@@H](Cc2ccccc2)C(N)=O)NC1=O` (stereo partly specified) [CAS_117580-24-2] ([Mpa]Y[dW]KV[X1]F-NH2; disulfide 1-6), the Ki in assay [1] amounted to 22.9 nM; in assay [2], 6760 nM; in assay [4] it was 2950 nM.

Take `C[C@@H](O)[C@H](NC(=O)[C@H](Cc1ccccc1)NC(=O)[C@@H](NC(=O)[C@H](CCCCN)NC(=O)[C@@H](Cc1c[nH]c2ccccc12)NC(=O)[C@H](Cc1ccccc1)NC(=O)[C@H](Cc1ccccc1)NC(=O)[C@H](N)Cc1ccccc1)[C@@H](C)O)C(N)=O` [CAS_133073-82-2] (H-[dF]FF[dW]KTFT-NH2): the Ki in assay [1] came to 0.19 nM; in assay [2], 6.76 nM; in assay [4], 7.41 nM.

`CC(C)[C@@H]1NC(=O)[C@H](CCCCN)NC(=O)[C@@H](Cc2c[nH]c3ccccc23)NC(=O)[C@H](Cc2ccc(O)cc2)NC(=O)[C@H](C)N(C)C(=O)[C@H](Cc2ccccc2)NC1=O` [seglitide] came in with a Ki in assay [1] of 20.9 nM. In other words, the double-digit nanomolar range.

In the case of `CC(C)[C@@H]1NC(=O)[C@H](CCCCN)NC(=O)[C@@H](Cc2c[nH]c3ccccc23)NC(=O)[C@H](Cc2ccc(O)cc2)NC(=O)[C@@H](NC(=O)[C@H](N)Cc2ccccc2)CSSC[C@@H](C(=O)N[C@@H](Cc2c[nH]c3ccccc23)C(N)=O)NC1=O` [CAS_71306] (H-[dF]CY[dW]KVCW-NH2; disulfide 2-7), the Ki in assay [1] was 15.1 nM; in assay [2] it was 224 nM; in assay [4] it was 107 nM.

`CC(C)[C@H](NC(=O)[C@H](CCCCN)NC(=O)[C@@H](Cc1c[nH]c2ccccc12)NC(=O)[C@H](Cc1ccc(O)cc1)NC(=O)[C@H](Cc1ccccc1)NC(=O)[C@H](N)Cc1ccccc1)C(=O)N[C@@H](Cc1ccccc1)C(=O)N[C@H](Cc1cccc2ccccc12)C(N)=O` [BIM 23056] (H-[dF]FY[dW]KVF[d1Nal]-NH2): the Ki in assay [1] was 63.1 nM; in assay [2], 275 nM; in assay [4] it was 91.2 nM.

For the compound `C[C@@H](O)[C@@H]1NC(=O)[C@H](Cc2ccc(O)cc2)NC(=O)[C@H]([C@@H](C)O)NC(=O)[C@H](CCCCN)NC(=O)[C@H](Cc2c[nH]c3ccccc23)NC(=O)[C@H](Cc2ccccc2)NC(=O)[C@H](Cc2ccccc2)NC(=O)[C@H](CC(N)=O)NC(=O)[C@H](CCCCN)NC(=O)CCCCC[C@@H](C(=O)O)NC(=O)[C@H](CO)NC1=O` [CGP-23996] (KNFFWKTYTS[Asu]-OH; lactam N-11), the inhibitory constant (Ki) in assay [1] is 0.7 nM; in assay [2] it was 3.54 nM; in assay [4], 2.39 nM.

In the case of `C[C@@H](OCc1ccccc1)[C@@H]1NC(=O)[C@H](CCCCN)NC(=O)[C@@H](Cc2c[nH]c3ccccc23)NC(=O)[C@H](Cc2ccccc2)NC(=O)CCCCCCNC1=O` [c[Aha-Phe-D-Trp-Lys-Thr(Bzl)]] (cyclo([Ahp]F[dW]KT(Bn))), the Ki is 132 nM in assay [1], 331 nM in assay [2] and 513 nM in assay [4].

Regarding `C[C@@H](O)[C@@H]1NC(=O)[C@H](CCCCN)NC(=O)[C@@H](Cc2c[nH]c3ccccc23)NC(=O)[C@H](Cc2ccccc2)NC(=O)[C@@H]2CCCN2C(=O)[C@H](Cc2ccccc2)NC1=O` (cyclo(PF[dW]KTF)), the figures for the Ki in assay [1], in assay [2] and in assay [4] were 107 nM, 2190 nM and 2290 nM, respectively.

Take `CC(C)C[C@H](NC(=O)[C@H](C)NC(=O)[C@@H]1CCCN1C(=O)[C@H](CC(N)=O)NC(=O)[C@H](CO)NC(=O)[C@H](CC(N)=O)NC(=O)[C@H](C)NC(=O)[C@@H](N)CO)C(=O)N[C@@H](C)C(=O)N1CCC[C@H]1C(=O)N[C@@H](CCCN=C(N)N)C(=O)N[C@@H](CCC(=O)O)C(=O)N[C@@H](CCCN=C(N)N)C(=O)N[C@@H](CCCCN)C(=O)N[C@@H](C)C(=O)NCC(=O)N[C@H]1CSSC[C@@H](C(=O)O)NC(=O)[C@H](CO)NC(=O)[C@H]([C@@H](C)O)NC(=O)[C@H](Cc2ccc(O)cc2)NC(=O)[C@H]([C@@H](C)O)NC(=O)[C@H](CCCCN)NC(=O)[C@@H](Cc2c[nH]c3ccccc23)NC(=O)[C@H](Cc2ccccc2)NC(=O)[C@H](Cc2ccccc2)NC(=O)[C@H](CC(N)=O)NC(=O)[C@H](CCCCN)NC1=O` [LTT-SRIF28] (H-SANSNPALAPRERKAGCKNFF[dW]KTYTSC-OH; disulfide 17-28): the Ki in assay [5] was 7.58 nM; in assay [1], 0.08 nM and 0.14 nM and 0.54 nM; in assay [2], 0.74 nM and 0.6 nM and 0.52 nM; in assay [4], 0.42 nM and 0.69 nM and 0.74 nM.

Consider `C[C@@H](O)[C@@H]1NC(=O)[C@H](CCCCN)NC(=O)[C@H](Cc2c[nH]c3ccccc23)NC(=O)[C@H](Cc2ccccc2)NC(=O)[C@H](Cc2ccccc2)NC(=O)[C@H](CC(N)=O)NC(=O)[C@H](CCCCN)NC(=O)[C@@H](NC(=O)[C@@H]2CCCN2)CSSC[C@@H](C(=O)N[C@@H](CCCCN)C(=O)O)NC(=O)[C@H](CO)NC(=O)[C@H](CO)NC(=O)[C@H](Cc2ccccc2)NC1=O` [Cortistatin(1-14)] (H-PCKNFFWKTFSSCK-OH; disulfide 2-13), for which the Ki in assay [1] stood at 0.53 nM; in assay [2] it was 0.85 nM; in assay [4], 2.69 nM.

The values above are taken from BindingDB's records for doi:10.1007/s002109900141 (Novartis Pharma, 1999).
